Where two headings read alike, the source gives them in different places.
Key:
[1] = target: T1, Cellulolytic Enzyme Composition #2; experiment: PCS hydrolysis by Cellulolytic Enzyme Composition #2 with added compounds; assay type: biochemical, Trichoderma reesei; conditions: for Ki: PCS hydrolysis, Cellulolytic Enzyme Composition #2
T1 construct: Dixon plot linear regression intercept (1/Rate); other: PCS; rate from hydrolysis difference (%) at 0 and 5 hours; rate from hydrolysis difference (%); Ki (x-intercept of Dixon plot); other: PCS hydrolysis, Cellulolytic Enzyme Composition #2; OPC flavonol-equivalent; Ki expressed as galloyl constituents; oth; fused on or other part: In one component the Humicola insolens endoglucanase V (CEL45A) core is fused in front of the A. oryzae beta-glucosidase
Protocol: Corn stover was pretreated at the U.S. Department of Energy National Renewable Energy Laboratory (NREL), […], Colo., USA, using dilute sulfuric acid. The following conditions were used for the pretreatment: 1.4 wt % sulfuric acid at 195° C. for 4.5 minutes. According to limit digestion with excess cellulase enzymes, the water-insoluble solids in the pretreated corn stover (PCS) contained 59.5% cellulose. Prior to use, the PCS was washed with a large volume of deionized water until soluble acid and sugars were removed. The dry weight of the water-washed PCS was 19.16%.
The effect of a mixture of tannic acid, ellagic acid, epicatechin, and six lignin constituent compounds (4-hydroxyl-2-methylbenzoic acid, vanillin, coniferyl alcohol, coniferyl aldehyde, ferulic acid, and syringaldehyde) was determined on the hydrolysis of PCS by Cellulolytic Enzyme Composition #1 or Cellulolytic Enzyme Composition #2. […] Cellulolytic Enzyme Composition #1 or Cellulolytic Enzyme Composition #2 was added at 0.25 g per liter. Reactions without the addition of the compounds served as controls. The capped tubes were incubated at 50° C. in an INNOVA® 4080 incubator shaker (New Brunswick Scientific Co., Inc., Edison, N.J., USA) at 150 rpm.
Aliquots of the suspensions, sampled over time, were filtered by centrifugation using a 0.45 μm MULTISCREEN® HV membrane (Millipore, Billerica, Mass., USA) at 2000 rpm for 15 minutes using a SORVALL® RT7 centrifuge (Thermo Fisher Scientific, Waltham, Mass., USA). When not used immediately, the filtered aliquots were frozen at −20° C. Sugar concentrations of the samples diluted in 0.005 M H2SO4 were measured after elution by 0.005 M H2SO4 at a flow rate of 0.4 ml/minute from a 4.6×250 mm AMINEX® HPX-87H column (Bio-Rad, Hercules, Calif., USA) at 65° C. with quantitation by integration of glucose and cellobiose using refractive index detection (CHEMSTATION®, AGILENT® 1100 HPLC, Agilent Technologies, Santa Clara, Calif., USA) calibrated with standards of glucose and cellobiose. The resultant equivalents were used to calculate the percentage of cellulose conversion for each reaction.
The degree of cellulose conversion to glucose plus cellobiose sugars (conversion, %) was calculated using the following equation:
Conversion(%)=(glucose+cellobiose×1.053)(mg/ml)×100×162/cellulose(mg/ml)×180)=(glucose+cellobiose×1.053)(mg/ml)×100/(cellulose(mg/ml)×1.111)
In this equation the factor 1.111 reflects the weight gain in converting cellulose to glucose, and the factor 1.053 reflects the weight gain in converting cellobiose to glucose. Cellulose in PCS was determined by a limit digest of PCS to release glucose and cellobiose.
Example 30 was repeated except that each compound was tested separately. […] Reactions without the addition of each compound served as controls.
The effect of OPC or flavonol on the hydrolysis of PCS by Cellulolytic Enzyme Composition #1 or Cellulolytic Enzyme Composition #2 was determined according to the procedure described in Example 30. OPC and flavonol were present at a concentration of 1 mM. Reactions without the addition of the compounds served as controls.
The effective inhibitory concentration range for tannic acid and OPC was also determined by the “mini-scale” hydrolysis described in Example 30 with Cellulolytic Enzyme Composition #2. The concentration of tannic acid ranged from 0.1 mM to 1 mM, while the concentration of OPC ranged from 0.1 mM to 10 mM. Reactions without the addition of the tannic compounds served as controls.
However, prior to the addition of Cellulolytic Enzyme Composition #2, the mixture of PCS or OPC and tannic acid was treated with Aspergillus oryzae tannase (Novozymes A/S, Bagsværd, Denmark) at 10% of the final protein level for 30 minutes. Reactions without addition of the tannic acid, OPC, or tannase served as controls.

[2] = target: T2, Trichoderma reesei CEL6A cellobiohydrolase II (Trichoderma reesei, UniProt P07987, P359R); experiment: PASC hydrolysis by CEL6A cellobiohydrolase II with tannic acid; assay type: biochemical; conditions: 1 mM tannic acid; 2 g PASC per liter, over 4 hours
T2 construct: made in house; host or cells: Fusarium venenatum
T2 sequence (P07987 25-471 P359R): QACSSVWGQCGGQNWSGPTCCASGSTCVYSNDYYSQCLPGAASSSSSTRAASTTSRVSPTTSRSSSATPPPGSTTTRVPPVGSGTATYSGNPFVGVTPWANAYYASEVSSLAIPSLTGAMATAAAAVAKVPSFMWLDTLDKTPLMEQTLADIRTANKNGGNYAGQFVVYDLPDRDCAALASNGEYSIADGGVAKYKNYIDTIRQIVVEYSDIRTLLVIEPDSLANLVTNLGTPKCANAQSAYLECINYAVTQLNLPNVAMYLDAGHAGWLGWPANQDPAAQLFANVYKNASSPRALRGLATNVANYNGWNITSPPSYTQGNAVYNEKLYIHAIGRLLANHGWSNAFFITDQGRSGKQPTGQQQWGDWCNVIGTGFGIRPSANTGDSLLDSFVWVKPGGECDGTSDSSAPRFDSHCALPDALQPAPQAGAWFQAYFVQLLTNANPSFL
Protocol: The inhibitory effect of tannic acid was determined on Trichoderma reesei CEL7A cellobiohydrolase 1, Trichoderma reesei CEL6A cellobiohydrolase II, Trichoderma reesei CEL7B endoglucanase 1, and Trichoderma reesei CEL5A endoglucanase II using PASC as substrate.

[3] = target: T3, Trichoderma reesei CEL7B endoglucanase I (Trichoderma reesei, UniProt P07981); experiment: CMC hydrolysis by CEL7B endoglucanase I with tannic acid; assay type: biochemical; conditions: 1 mM tannic acid, 50° C., 4 hours
T3 construct: made in house; host or cells: Aspergillus oryzae JaL250
T3 sequence (P07981 23-459): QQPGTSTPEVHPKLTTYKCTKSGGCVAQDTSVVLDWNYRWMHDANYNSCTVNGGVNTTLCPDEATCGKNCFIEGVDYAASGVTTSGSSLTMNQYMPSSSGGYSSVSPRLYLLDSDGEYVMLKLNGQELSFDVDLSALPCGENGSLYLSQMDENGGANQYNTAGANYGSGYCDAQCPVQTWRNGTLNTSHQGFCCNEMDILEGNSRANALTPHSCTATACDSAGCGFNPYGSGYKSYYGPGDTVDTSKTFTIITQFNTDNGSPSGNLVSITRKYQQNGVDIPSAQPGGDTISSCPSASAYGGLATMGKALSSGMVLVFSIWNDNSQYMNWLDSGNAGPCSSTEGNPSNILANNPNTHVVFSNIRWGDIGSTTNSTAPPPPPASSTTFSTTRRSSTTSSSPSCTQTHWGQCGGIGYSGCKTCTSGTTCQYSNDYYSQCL
Protocol: The effect of tannic acid on Trichoderma reesei CEL7B endoglucanase I and Trichoderma reesei CEL5A endoglucanase II was also evaluated using carboxymethylcellulose (CMC) as substrate. The hydrolysis reactions were conducted in duplicate using the “mini-plate-scale” hydrolysis procedure described in Example 33, except that 1 mM tannic acid and 10 to 20 g of carboxymethylcellulose (CMC) and 1 to 20 mg of enzyme per liter 50 mM sodium acetate pH 5.0 were used at 50° C. for 4 hours. Soluble reducing sugars were analyzed by a p-hydroxybenzoic acid hydrazide (PHBAH) assay according to the method of Lever, 1972, Anal. Biochem. 47: 273-279, instead of by HPLC as described in Examples 30 and 33. Reactions without the addition of the enzymes served as controls to correct background absorption. Spectrophotometric measurements were performed using a SPECTRAMAX™ 340PC reader (Molecular Devices Corp., Sunnyvale, Calif., USA) with COSTAR® 96-well microplates (Cole-Parmer Instrument Co, Vernon Hills, Ill., USA).

[4] = target: T4, Aspergillus oryzae CEL3A beta-glucosidase (Aspergillus oryzae, UniProt Q2UUD6); experiment: Cellobiose hydrolysis by CEL3A beta-glucosidase with tannic acid; assay type: biochemical
T4 construct: made in house
T4 sequence (Q2UUD6 20-861): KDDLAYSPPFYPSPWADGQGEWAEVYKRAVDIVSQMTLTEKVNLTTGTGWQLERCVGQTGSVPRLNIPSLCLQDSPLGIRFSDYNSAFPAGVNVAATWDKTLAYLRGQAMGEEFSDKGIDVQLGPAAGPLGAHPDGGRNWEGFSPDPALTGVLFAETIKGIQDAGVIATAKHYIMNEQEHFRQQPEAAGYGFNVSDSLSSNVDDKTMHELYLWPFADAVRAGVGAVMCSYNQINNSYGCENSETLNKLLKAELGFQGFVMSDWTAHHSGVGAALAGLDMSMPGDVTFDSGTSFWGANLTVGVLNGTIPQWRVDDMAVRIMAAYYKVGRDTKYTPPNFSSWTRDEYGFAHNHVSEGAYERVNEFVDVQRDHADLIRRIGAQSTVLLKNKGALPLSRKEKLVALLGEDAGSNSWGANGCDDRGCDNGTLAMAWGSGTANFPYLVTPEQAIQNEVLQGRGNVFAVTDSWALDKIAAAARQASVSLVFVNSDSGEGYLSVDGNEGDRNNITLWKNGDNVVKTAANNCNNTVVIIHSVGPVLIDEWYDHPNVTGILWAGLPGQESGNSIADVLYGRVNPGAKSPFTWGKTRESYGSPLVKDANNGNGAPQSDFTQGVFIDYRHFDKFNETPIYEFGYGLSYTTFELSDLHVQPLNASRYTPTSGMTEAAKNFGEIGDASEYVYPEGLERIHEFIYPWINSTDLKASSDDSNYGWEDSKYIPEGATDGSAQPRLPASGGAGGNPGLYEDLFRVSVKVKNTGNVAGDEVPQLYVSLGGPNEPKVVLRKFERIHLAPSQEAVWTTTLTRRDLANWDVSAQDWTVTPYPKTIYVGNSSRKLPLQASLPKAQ
Protocol: The effect of tannic acid on Aspergillus oryzae CEL3A beta-glucosidase was also evaluated using a series of “mini-scale” hydrolysis reactions according to the procedure described in Example 30, except that 1 mM tannic acid (corresponding to 10 mM galloyl and 1 mM glucosyl constituents) and 2 g of cellobiose and 1 mg of beta-glucosidase per liter of 39 mM sodium acetate pH 5.0 were used. Reactions without the addition of the tannic acid served as controls. The reaction was monitored by HPLC as described in Example 30.
Tannic acid was also evaluated in the hydrolysis of cellobiose.

[5] = PCS, rate from hydrolysis difference (%) at 0 and 5 hours

O=C(OC[C@H]1O[C@@H](OC(=O)c2cc(O)c(O)c(OC(=O)c3cc(O)c(O)c(O)c3)c2)[C@H](OC(=O)c2cc(O)c(O)c(OC(=O)c3cc(O)c(O)c(O)c3)c2)[C@@H](OC(=O)c2cc(O)c(O)c(OC(=O)c3cc(O)c(O)c(O)c3)c2)[C@@H]1OC(=O)c1cc(O)c(O)c(OC(=O)c2cc(O)c(O)c(O)c2)c1)c1cc(O)c(O)c(OC(=O)c2cc(O)c(O)c(O)c2)c1 [tannic acid, Tannic acid]
Ki ([1]; OPC flavonol-equivalent, read-out: Ki (x-intercept of Dixon plot)): ~180 µM | Ki ([1]; corresponding galloyl constituents, read-out: Ki expressed as galloyl constituents): 1800 µM | Dixon plot linear regression intercept (1/Rate) [1, 5]: 0.018±0.005 | Dixon plot linear regression slope (1/Rate vs inhibitor concentration) [1, 5]: 0.098±0.009 | concentration dependence of inhibition of PCS hydrolysis ([1]; tannic acid 0.1 mM to 1 mM, OPC 0.1 mM to 10 mM, 43 g PCS and 0.25 g enzyme per liter): increasingly inhibitory | effect on PASC hydrolysis by CEL6A cellobiohydrolase II [2]: significantly inhibited | effect on CMC hydrolysis by CEL7B endoglucanase I [3]: significantly inhibited | effect on cellobiose hydrolysis by CEL3A beta-glucosidase ([4]; 1 mM tannic acid, 2 g cellobiose and 1 mg beta-glucosidase per liter): significantly inhibited | type of inhibition, CEL3A beta-glucosidase ([4]; cellobiose hydrolysis): mixed | IC50 ([4]; cellobiose hydrolysis, 0.001 g enzyme per liter, pH 5, 50° C., read-out: I50 for CEL3A beta-glucosidase): ~800 µM
